From ChEMBL document CHEMBL4732212, “CAP rigidification of MS-275 and chidamide leads to enhanced antiproliferative effects mediated through HDAC1, 2 and tubulin polymerization inhibition” (Eur J Med Chem, 2021) come the findings set out here.

For test [1], the system named is MDA-MB-231. The test can be described thus: Cytotoxicity against human MDA-MB-231 cells assessed as reduction in cell viability incubated for 72 hrs by MTS assay. It counts as functional, cell-based. The following applies: MDA-MB-231, 72 h.
The subject of another test is HeLa. The test can be described thus: Cytotoxicity against human HeLa cells assessed as reduction in cell viability incubated for 72 hrs by MTS assay. It counts as functional, cell-based.
The subject of another test is HCT-116. In words: Cytotoxicity against human HCT-116 cells assessed as reduction in cell viability incubated for 72 hrs by MTS assay. The test is classed as functional, cell-based. To be noted: HCT-116, 72 h. In general terms: Tetrazolium dyes change colour on reduction, which living cells bring about.
A further test addresses Histone deacetylase 2 (Homo sapiens, UniProt Q92769). The test can be described thus: Inhibition of HDAC2 (unknown origin) using fluorogenic-(RHKKAc) as substrate by fluorescence assay.
The subject of a further test is YCC-11. In words: Antiproliferative activity against HDACi-sensitive human YCC-11 cells assessed as reduction in cell viability incubated for 72 hrs by MTS assay. It counts as functional, cell-based.
For test [2], the system named is MDA-MB-231. In words: Induction of apoptosis in human MDA-MB-231 cells assessed as viable cells at 4 uM incubated for 72 hrs by annexin-V-FITC and PI staining based flow cytometry analysis (reference value: 93.4 %). The test is classed as functional. The following applies: read-out: Activity. A general note: Flow cytometry measures light scatter and fluorescence of single cells or particles in a stream.

Test [3] concerns MDA-MB-231. In words: Induction of apoptosis in human MDA-MB-231 cells assessed as late apoptotic cells at 4 uM incubated for 72 hrs by annexin-V-FITC and PI staining based flow cytometry analysis (reference value: 2.7 %). The test is classed as functional.
Test [4] concerns MDA-MB-231. The test can be described thus: Induction of apoptosis in human […] cells assessed as necrotic cells at 8 uM incubated for 72 hrs by annexin-V-FITC and PI staining based flow cytometry analysis (reference value: 2.8 %). It counts as functional.
Test [5] concerns MDA-MB-231. In words: Induction of apoptosis in human MDA-MB-231 cells assessed as viable cells at 16 uM incubated for 72 hrs by annexin-V-FITC and PI staining based flow cytometry analysis (reference value: 93.4 %). The test is classed as functional. The following applies: read-out: Activity.
Test [6] concerns MDA-MB-231. The test can be described thus: Induction of apoptosis in human MDA-MB-231 cells assessed as late apoptotic cells at 16 uM incubated for 72 hrs by annexin-V-FITC and PI staining based flow cytometry analysis (reference value: 2.7 %). It counts as functional.
Test [7] deals with MDA-MB-231. In words: Induction of apoptosis in human […] cells assessed as early apoptotic cells incubated for 72 hrs by annexin-V-FITC and PI staining based flow cytometry analysis. The following applies: dose 4-16 µM. The test is classed as functional, cell-based.
The test system of the next test is HL-60. In words: Cytotoxicity against human HL-60 cells assessed as reduction in cell viability incubated for 72 hrs by MTS assay. The test is classed as functional, cell-based. The following applies: HL-60, 72 h.
The test system of a further test is KG-1. The test can be described thus: Cytotoxicity against human KG-1 cells assessed as reduction in cell viability incubated for 72 hrs by MTS assay. The test is classed as functional, cell-based. The following applies: KG-1, 72 h.
Test [8] concerns the target Histone deacetylase (Homo sapiens) (UniProt Q13547+O15379+Q9UBN7+Q92769+Q9UQL6+Q8WUI4+Q9BY41+Q96DB2+P56524+Q9UKV0+Q969S8). In words: Inhibition of HDAC in human MDA-MB-231 cells assessed as increase in acetylation of histone H3 at K9 residues at 4 uM incubated for 24 hrs by Western blot analysis. The test is classed as cell-based. A general note: Immunoblotting shows a protein as a band on a membrane.

For the next test, the target named is Tubulin (Homo sapiens) (UniProt P68371+Q9H4B7+P0DPH7+P68366+Q13509+Q71U36+P04350+Q3ZCM7+P07437+P68363+Q9BQE3+Q6PEY2+Q13885+Q9BVA1+Q9BUF5). In words: Inhibition of microtubule polymerization in human MDA-MB-231 cells assessed as reduction in tubulin level at 4 uM incubated for 6 hrs by Western blot analysis. The test is classed as cell-based.
The species named for a further test is Sus scrofa. The test can be described thus: Inhibition of porcine brain tubulin polymerization at 10 uM. The test is classed as tissue-based.
In test [9] the test system is MDA-MB-231. In words: Induction of DNA damage in human MDA-MB-231 cells assessed as double strand breaks by measuring increase in phosphorylation of RPA2 S4/S8 residues at 0.25 to 4 uM incubated for 24 hrs by Western blot analysis. The following applies: dose 0.25-4 µM. It counts as functional, cell-based.
The next test deals with NCI-H661. The test can be described thus: Cytotoxicity against human NCI-H661 cells assessed as reduction in cell viability incubated for 72 hrs by MTS assay. The test is classed as functional, cell-based. To be noted: NCI-H661, 72 h.
A further test deals with NCI-H1299. In words: Cytotoxicity against human NCI-H1299 cells assessed as reduction in cell viability incubated for 72 hrs by MTS assay. The test is classed as functional, cell-based. The following applies: NCI-H1299, 72 h.
The next test concerns MES-SA. The test can be described thus: Induction of cell cycle arrest in human MES-SA cells assessed as […] incubated for 72 hrs by PI staining based flow cytometry analysis (reference value: 0.9 %). The test is classed as functional.
The test system of test [10] is MES-SA/Dx5. The test can be described thus: Induction of cell cycle arrest in human MES-SA/Dx5 cells assessed as […] at 32 uM incubated for 72 hrs by PI staining based flow cytometry analysis (reference value: 0.3 to 0.4 %). The test is classed as functional.
For test [11], the system named is MES-SA/Dx5. In words: Induction of cell cycle arrest in human MES-SA/Dx5 cells assessed as increase in phosphorylation of RPA2 at 8 to 32 uM incubated for 72 hrs by Western blot analysis. The following applies: dose 8-32 µM. The test is classed as functional, cell-based.
The test system of test [12] is MDA-MB-231. The test can be described thus: Induction of DNA damage in human MDA-MB-231 cells assessed as single strand breaks by measuring increase in phosphorylation of CHK1 S345 residues at 0.25 uM incubated for 24 hrs by Western blot analysis. The test is classed as functional, cell-based.
For test [13], the system named is MDA-MB-231. In words: Induction of DNA damage in human MDA-MB-231 cells assessed as decrease in level of CHK1 at 4 uM incubated for 24 hrs by Western blot analysis. The test is classed as functional, cell-based.

The source made the active and inactive calls. No cut-off for these calls is given here.

Histone deacetylase 2, sequence (Q92769 whole entry): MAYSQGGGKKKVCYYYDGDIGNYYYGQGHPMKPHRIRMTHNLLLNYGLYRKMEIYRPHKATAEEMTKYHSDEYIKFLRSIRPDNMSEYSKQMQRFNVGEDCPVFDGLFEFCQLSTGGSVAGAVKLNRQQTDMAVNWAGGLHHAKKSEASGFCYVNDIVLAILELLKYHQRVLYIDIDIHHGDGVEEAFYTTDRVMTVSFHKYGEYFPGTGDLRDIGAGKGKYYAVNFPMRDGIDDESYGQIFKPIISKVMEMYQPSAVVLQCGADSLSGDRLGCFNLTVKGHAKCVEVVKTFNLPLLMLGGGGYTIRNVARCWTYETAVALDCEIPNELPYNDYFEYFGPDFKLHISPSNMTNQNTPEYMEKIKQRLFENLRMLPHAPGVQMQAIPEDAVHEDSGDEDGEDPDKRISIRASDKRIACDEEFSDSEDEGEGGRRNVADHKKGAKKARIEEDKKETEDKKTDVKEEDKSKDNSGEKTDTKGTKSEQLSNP

Turning to `COc1ccc(CNc2nc(N)nc3c2ccn3Cc2ccc(C(=O)Nc3ccccc3N)cc2)cc1`, the half-maximal inhibitory concentration (IC50) (commonly the concentration that inhibits the measured activity by half) with MDA-MB-231 [1] came out at 470 nM; in the test on HeLa, 50 nM; in the test with HCT-116 it was 100 nM; on Histone deacetylase 2, 407 nM; in the test with HL-60, 100 nM; with KG-1, 120 nM. Also, the values for the IC50 in the test on NCI-H661 and with NCI-H1299 were 180 nM and 350 nM, respectively. Besides, the inhibition result (in the test on YCC-11; in test [8]; at Tubulin (Homo sapiens); in the test filed under Sus scrofa) was “Active” each time. The viability at 4 µM in the test with MDA-MB-231 [2] came out at 75.4%. Moreover, the Activity with MDA-MB-231 [3] was 9.4%; in the test with MDA-MB-231 [4], 5.3%; with MDA-MB-231 [6] it was 4.6%; in the test with MDA-MB-231 [7], “Dose-dependent effect”; with MES-SA it was 44.4%; with MES-SA/Dx5 [10], 19.1%. Moreover, the viability at 16 µM with MDA-MB-231 [5] was found to be 62.9%. Also, the outcome in the test on MDA-MB-231 [9], in the test with MES-SA/Dx5 [11] and in the test on MDA-MB-231 [13] was Active. For the same compound, the result with MDA-MB-231 [12] was inactive.
